The structures appear in SMILES notation. Values joined by “and” are separate entries in the source; they are usually repeats but may differ in a detail not shown here. Equal entries are not always repeated. Some results are limits rather than exact numbers.

For test [1], the system named is Han Chinese patients having warfarin sensitivity and resistance. The test can be described thus: Warfarin maintenance dose and INR in selected Chinese patients with warfarin sensitivity or resistance, by VKORC1 -1639 genotype. The test is classed as in vivo, human. Conditions: for Dose: individual patients; for dose requirements, mean / dose requirements, range: selected patients. From the text:
(§1) Clinical information (including age, sex, weight, and average daily maintenance dose) was obtained from every participant.
Primers were specifically designed for the intron-exon junctions, exons and 2 kbps upstream of the transcription start site for both CYP2C9 and VKORC1 using the Primer3 PCR primer program (http://fokker.wi.mit.edu/cgi-bin/primer3/primer3_www.cgi). The primers used to detect variants in the VKORC1 promoter were: 5′-[…] (SEQ ID NO:2; sense strand located 1.5 kb upstream of the transcription start site) and 5′-[…] (SEQ ID NO:3; anti-sense strand located 0.9 kb upstream of the transcription start site). The polymerase chain reactions (PCR) were performed in a final volume of […] containing 0.4 μM of each primer, 10 mM Tris-HCl (pH8.3), 50 mM KCl, 1.5 mM MgCl2, 0.2 mM dNTPs and 1 unit HotStart Taq™ (Qiagen Inc, Valencia, Calif., USA). Amplification conditions consisted of an initial denaturation of 12 min at 96° C., followed by 34 PCR cycles in 30 sec at 96° C., 30 sec at 60° C., 40 sec at 72° C.
The variants were: 1075 A>C (1359L known as CYP2C9*3), 895 A>G (T299A), and 1145 C>T (P382L).
We also sequenced the promoter, coding regions, and the exon-intron junctions of the VKORC1 gene.

For test [2], the system named is randomly selected Chinese patients receiving warfarin. The test is described as follows: Warfarin maintenance dose and INR in 104 randomly selected Chinese patients receiving warfarin, by VKORC1 -1639 genotype. It is filed as in vivo, human. The protocol:
as §1
Briefly, primers and probes were designed using the Spectro[…] software (Sequenom). Multiplex PCR was performed, and unincorporated dNTPs were dephosphorylated using shrimp alkaline phosphatase (Hoffman-LaRoche, Basel, Switzerland), followed by primer extension. The purified primer extension reactions were spotted onto a 384-element silicon chip (SpectroCHIP, Sequenom), analyzed in the Bruker Biflex III MALDI-TOF SpectroREADER mass spectrometer (Sequenom), and the resulting spectrum was processed with SpectroTYPER (Sequenom).
We analyzed the data regardless of the presence of other confounding variables, such as diet or other medications.

[3] abbreviates: heterozygous AG at VKORC1 -1639.

`CC(=O)CC(c1ccccc1)c1c(O)c2ccccc2oc1=O` (racemic) [warfarin, 4-hydroxy-3-(3-oxo-1-phenylbutyl)-2H-1-benzopyran-2-one]: the “Dose” value in test [1] (VKORC1 -1639 AA, warfarin sensitive group (dose ≦1.5 mg/day), average daily maintenance dose) was 1.43 mg/d and 1.5 mg/d and 0.71 mg/d and 1 mg/d (2×); in test [1] (VKORC1 -1639 AG, warfarin resistant group (dose ≧6 mg/day)), 6.07 mg/day and 10 mg/day; in test [1] (VKORC1 -1639 GG, warfarin resistant group (dose ≧6 mg/day)) it was 8.57 mg/day and 8.75 mg/day and 10 mg/day. Moreover, the “dose requirements, mean” value in test [1] (AA genotype at VKORC1 -1639) came out at 1.19 mg/day; in test [1] (setting [3]), 8.04 mg/day; in test [1] (homozygous GG at VKORC1 -1639), 9.11 mg/day. Besides, the “dose requirements, range” value in test [1] (AA genotype at VKORC1 -1639) was 0.71 to 1.50 mg/day; in test [1] (setting [3]) it was 6.07 to 10 mg/day; in test [1] (homozygous GG at VKORC1 -1639) it was 8.57 to 10 mg/day. Moreover, the “warfarin dose, upper limit observed” value in test [2] (none of the randomly selected patients had a greater dose) is no more than 6 mg/day. Further, the maintenance dose in test [2] (randomly selected patients, AA genotype) was 2.61+/−1.10 my/day. Moreover, the “Warfarin dose,” value in test [2] (randomly selected patients, VKORC1 -1639 AG + GG (n = 21), mean ± SD) was 3.81 ± 1.24 mg/day and 3.81 mg/day.
